This passage reports Triple point temperature results from the NIST ThermoML archive (doi:10.1021/acs.jced.5b00488).

± gives the expanded uncertainty stated by the source.

The conditions of this data set: Crystal; visual observation.

For the compound `CC(COCc1ccc(O)c2ncccc12)(COCc1ccc(O)c2ncccc12)COCc1ccc(O)c2ncccc12`, the Triple point temperature is listed as 468.15 ± 4 K.
